{
  "source": "patent US20190247376A1",
  "about": "“NICOTINIC ACETYLCHOLINE RECEPTOR AGONIST ATTENUATES ILC2-DEPENDENT AIRWAY HYPERREACTIVITY” (University of Southern California, priority 2016, published 2019)",
  "tested_on": "lung ILC2s",
  "test": "Flow cytometry of proliferation, transcription factor and signalling markers in lung ILC2s",
  "assay_type": "cell-based, mouse",
  "text": "FIGS. 5A-5F: Cholinergic signal attenuates ILC2 proliferation and GATA3 expression. (FIG. 5A) Mean fluorescence intensity of Ki67 and percentage of Ki67+ cells in isolated lung ILC2s, stimulated with IL-33 in the absence and presence of α7nAChR. (FIG. 5B) Mean fluorescence intensity of GATA3 in isolated lung ILC2s, stimulated with IL-33 in the absence and presence of α7nAChR. One representative experiment of two is shown (n=5; Student's t test *, p<0.05; **, p<0.01; ***p<0.001). […] FACS-purified ILC2s from WT mice challenged with rm-IL-33 with or without α7nAChR agonist as described in FIG. 3A were quantified by NanoString nCounter technology. Data range from −1 to +1 for the most reduced and most increased gene expression, respectively. (FIG. 5D) Expression of NF-κB p65 in isolated lung ILC2s from mice challenged with IL-33 with (dotted line) or without (thick line) α7nAChR agonist. The level of isotype-matched stain control is shown as a gray-filled histogram. (FIG. 5E) Expression of phosphorylated IKKα/β (Ser176/180) in isolated lung ILC2s stimulated with IL-33, with (dotted line) or without (thick line) α7nAChR agonist for 24 hours. The level of isotype-matched stain control is shown as a gray-filled histogram. (FIG. 5F) Mean fluorescence intensity of phosphorylated IKKα/β with or without α7nAChR agonist.\nFIGS. 9A-9C: Effect of α7nAChR agonist on some marker expressions by ILC2s. A cohort of BALB/cByJ mice were intranasally challenged with rm-IL-33 (0.5 μg) with or without α7nAChR agonist (125 μg) for three consecutive days. Histogram and MFI of CD25 (FIG. 9A), CD127 (FIG. 9B) and ST2 (FIG. 9C) in isolated lung ILC2s. Data are representative of at least two independent experiments and are presented as means±SEM (n=4; Student's t test *, p<0.05).\nBiotinylated anti-mouse lineage (CD3e (145-2C11), CD45R (RA3-3B2), Gr-1 (RB6-8C5), CD11c (N418), CD11b (M1/70), Ter119 (TER-119), NK1.1 (PK136), TCR-β (H57-597), TCR-γδ (GL3), and FcεRIα (MAR-1), Streptavidin-FITC, FITC anti-mouse CD3 (145-2C11), BV510 anti-mouse CD4 (RM4-5), APC-Cy7 anti-mouse CD25 (PC61), PE anti-mouse CD25 (PC61), BV421 anti-mouse CD25 (PC61), BV510 anti-mouse CD90.2 (53-2.1), APC anti-mouse CD127 (A7R34), PE-Cy7 anti-mouse CD127 (A7R34), FITC anti-mouse CD45 (30F-11), PE/Cy7 anti-mouse CD45 (30-F11), PE anti-mouse IL-5 (TRFK5), BV421 anti-mouse GATA3 (16E10A23), 7-AAD Viability staining solution, purchased from BioLegend (San Diego, Calif.). PE anti-mouse ST2 (IL-33R, RMST2-2), PerCP-eFluor710 anti-Mouse ST2 (RMST2-2), Streptavidin APC-eFluor780, Alexa Fluor647 labeled anti-IL-4 (clone 11B11), eFluor 450 anti-mouse CD45 (30F-11), eFluor450 anti-CD44 (clone IM7), eFluor-660 anti-mouse Ki-67 (SollA15), PE/Cy7 anti-mouse IL-13 (eBio13A), anti-mouse BCL-2 (10C4), were purchased from eBioscience. Alexa Fluor 488 anti-mouse p65-NF-κB (532301) was purchased from R&D Systems (dilution 1:50). Alexa Fluor 647 conjugated α-bungarotoxin (Invitrogen, San Diego, Calif.). PE anti-mouse Phospho-IKKα/β (Ser 176/180) (16A6) was purchased from Cell Signaling Technology (dilution 1:50). PE anti-rat α7nAChR (319) was purchased from Santa Cruz Biotechnology (dilution 1:50). This antibody has been used to identify this receptor previously in several studies^69. Lineage marker antibodies were used at the dilution of 1:400, unless mentioned otherwise other antibodies were used at the dilution of 1:200.\nIntracellular staining was performed using BD Cytofix/Cytoperm kit (BD Bioscience, San Jose, Calif.) according to the manufacturer's instructions. For analysis of GATA3 and Ki-67 expression, freshly isolated cells were fixed and permeabilized using Fixation/Permeabilization buffer kit (eBioscience) according to the manufacturer's instructions and as previously described^70.",
  "data": [
    {"smiles": "COc1ccc(/C=C2\\CCCN=C2c2cccnc2)c(OC)c1", "note": "[GTS-21, 3-[(3E)-3-[(2,4-dimethoxyphenyl)methylidene]-5,6-dihydro-4H-pyridin-2-yl]pyridine]", "values": [
      {"measurement": "expression of anti-apoptotic factor Bcl-2 on ILC2s", "setting": "in vivo data", "result": "unaffected"},
      {"measurement": "GATA-3 expression in ILC2s", "setting": "isolated lung ILC2s, IL-33", "result": "significantly inhibits"},
      {"measurement": "proliferation rate of pulmonary ILC2s (Ki-67 levels)", "setting": "isolated lung ILC2s, IL-33", "result": "significantly decreased"},
      {"measurement": "NF-κB p65 expression in ILC2s", "setting": "lung ILC2s from mice challenged with IL-33", "result": "reduced"},
      {"measurement": "phosphorylated IKKα/β (Ser176/180) expression in ILC2s", "setting": "lung ILC2s stimulated with IL-33, 24 hours", "result": "reduced"}
    ]}
  ]
}
